# The supplement of paper PMC10307832
# How the values were obtained:
# Test in all cases: relative viability (nuclei count vs DMSO), 5 days (fraction); higher = more cells survive
# QS11 + Foretinib = compound: C1CC2=C(C1)C=C(C=C2)OC3=NC(=C4C(=N3)N(C=N4)CC5=CC=C(C=C5)C6=CC=CC=C6)N[C@@H](CC7=CC=CC=C7)CO [QS11] + COc1cc2c(Oc3ccc(NC(=O)C4(C(=O)Nc5ccc(F)cc5)CC4)cc3F)ccnc2cc1OCCCN1CCOCC1 [Foretinib] (partner 0.25 µM)
# Method in brief: (§1)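 Nuclei were stained with Hoechst during a one-step fixation (final 0.05% Triton X-100, 1% formaldehyde, 1 ug/ml Hoechst) carried out 5 days after dosing, then counted on 4× images. The cells, lung cancer lines in 1536-well plates, had been dosed by pin tool the day after seeding with one drug alone or a fixed anchor-drug dose plus five library-drug doses (not always all listed) in √10 steps. Relative viability is the nuclei count in treated wells divided by that in vehicle wells, and each value is the median of duplicate plates.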
# AZ628 + Pemetrexed = compound: CC1=C(C=C(C=C1)NC(=O)C2=CC(=CC=C2)C(C)(C)C#N)NC3=CC4=C(C=C3)N=CN(C4=O)C [AZ628] + Nc1nc2[nH]cc(CCc3ccc(C(=O)N[C@@H](CCC(=O)O)C(=O)O)cc3)c2c(=O)[nH]1 [Pemetrexed] (partner 0.2 µM)
# Method in brief: as §1
# [1] = compound: C[As](C)SC[C@H](NC(=O)CC[C@H](N)C(=O)O)C(=O)NCC(=O)O [Darinaparsin] + Cc1cc(Nc2cc(N3CCN(C)CC3)nc(Sc3ccc(NC(=O)C4CC4)cc3)n2)n[nH]1 [Tozasertib] (partner 0.1 µM)
# Method in brief: as §1
# [2] = compound: C[As](C)SC[C@H](NC(=O)CC[C@H](N)C(=O)O)C(=O)NCC(=O)O [Darinaparsin] + Nc1ncn([C@H]2C[C@H](O)[C@@H](CO)O2)c(=O)n1 [Decitabine] (partner 2 µM)
# Method in brief: as §1
Cell Line,relative viability (QS11 + Foretinib; first compound 0.08 µM),relative viability (QS11 + Foretinib; first compound 0.253 µM),relative viability (QS11 + Foretinib; first compound 0.8 µM),relative viability (QS11 + Foretinib; first compound 2.53 µM),relative viability (QS11 + Foretinib; first compound 8 µM),relative viability (AZ628 + Pemetrexed; first compound 0.08 µM),relative viability (AZ628 + Pemetrexed; first compound 0.253 µM),relative viability (AZ628 + Pemetrexed; first compound 0.8 µM),relative viability (AZ628 + Pemetrexed; first compound 2.53 µM),relative viability (AZ628 + Pemetrexed; first compound 8 µM),relative viability ([1]; first compound 0.08 µM),relative viability ([1]; first compound 0.8 µM),relative viability ([1]; first compound 2.53 µM),relative viability ([1]; first compound 8 µM),relative viability ([2]; first compound 0.08 µM),relative viability ([2]; first compound 0.8 µM),relative viability ([2]; first compound 2.53 µM),relative viability ([2]; first compound 8 µM)
NCI-H650,1,1.11,0.994,0.924,1.02,0.947,1.15,1.08,1.18,1.11,0.788,0.693,0.792,0.807,0.296,0.35,0.333,0.338
SW 1573,0.862,0.926,1.02,0.853,1.07,0.806,0.79,0.675,0.765,0.461,0.145,0.2,0.197,0.14,0.564,0.468,0.61,0.555
NCI-H322M,1.06,1.04,1.06,1.09,1.44,0.726,0.664,0.604,0.642,0.558,0.564,0.464,0.423,0.492,0.704,0.686,0.577,0.724
ABC-1,0.912,1.06,1.06,1.08,1.32,–,–,–,–,–,0.169,0.205,0.2,0.192,1.16,1.09,1.1,0.953
NCI-H1993,0.737,0.636,0.696,0.787,0.628,0.631,0.598,0.47,0.488,0.461,0.598,0.585,0.549,0.557,0.626,0.584,0.608,0.586
NCI-H1355,1.01,0.911,0.775,0.931,1.05,1.06,1.02,0.843,0.996,0.716,0.571,0.568,0.44,0.499,0.38,0.357,0.304,0.369
PC-3 [JPC-3],0.972,1.07,0.991,1.03,0.982,1.29,0.984,1.22,1.16,0.925,1.08,0.996,0.739,1.1,0.748,0.773,0.847,0.796
NCI-H1651,0.787,0.901,0.822,0.671,0.698,0.632,0.522,0.563,0.711,0.554,0.911,0.739,0.633,0.918,0.589,0.66,0.596,0.665
LK-2,1.13,1.38,1.41,1.13,1.09,0.273,0.221,0.263,0.343,0.15,0.203,–,0.177,0.175,0.281,0.235,0.277,0.333
